Assay [1] deals with T1, ovine COX-2 (Ovis aries, UniProt P79208).
T1 construct: purchased Cayman Chemical Co. 760111
T1 sequence (P79208 17-603): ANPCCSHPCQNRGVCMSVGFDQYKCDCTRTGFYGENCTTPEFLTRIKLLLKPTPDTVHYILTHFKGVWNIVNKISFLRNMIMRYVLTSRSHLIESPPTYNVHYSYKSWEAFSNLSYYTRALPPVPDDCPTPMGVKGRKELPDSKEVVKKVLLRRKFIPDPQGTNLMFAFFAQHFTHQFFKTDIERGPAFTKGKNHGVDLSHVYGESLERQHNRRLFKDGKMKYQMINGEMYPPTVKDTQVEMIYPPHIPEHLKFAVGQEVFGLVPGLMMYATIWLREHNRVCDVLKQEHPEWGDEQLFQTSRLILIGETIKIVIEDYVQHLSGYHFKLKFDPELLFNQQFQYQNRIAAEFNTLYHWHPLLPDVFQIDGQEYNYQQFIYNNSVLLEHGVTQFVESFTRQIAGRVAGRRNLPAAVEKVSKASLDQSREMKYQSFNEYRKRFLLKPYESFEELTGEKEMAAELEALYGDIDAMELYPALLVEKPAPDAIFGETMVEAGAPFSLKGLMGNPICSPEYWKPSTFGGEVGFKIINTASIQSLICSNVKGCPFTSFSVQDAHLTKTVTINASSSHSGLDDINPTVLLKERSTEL
The experiment in a line: Colorimetric COX (ovine) inhibitor screening assay, COX-2. It counts as biochemical. The source says: (§1) The IC50 is the concentration of tested compounds calculated using the regression equation.

In assay [2] the target is T2, ovine COX-1 (Ovis aries, UniProt P05979).
T2 construct: purchased Cayman Chemical Co. 760111
T2 sequence (P05979 25-600): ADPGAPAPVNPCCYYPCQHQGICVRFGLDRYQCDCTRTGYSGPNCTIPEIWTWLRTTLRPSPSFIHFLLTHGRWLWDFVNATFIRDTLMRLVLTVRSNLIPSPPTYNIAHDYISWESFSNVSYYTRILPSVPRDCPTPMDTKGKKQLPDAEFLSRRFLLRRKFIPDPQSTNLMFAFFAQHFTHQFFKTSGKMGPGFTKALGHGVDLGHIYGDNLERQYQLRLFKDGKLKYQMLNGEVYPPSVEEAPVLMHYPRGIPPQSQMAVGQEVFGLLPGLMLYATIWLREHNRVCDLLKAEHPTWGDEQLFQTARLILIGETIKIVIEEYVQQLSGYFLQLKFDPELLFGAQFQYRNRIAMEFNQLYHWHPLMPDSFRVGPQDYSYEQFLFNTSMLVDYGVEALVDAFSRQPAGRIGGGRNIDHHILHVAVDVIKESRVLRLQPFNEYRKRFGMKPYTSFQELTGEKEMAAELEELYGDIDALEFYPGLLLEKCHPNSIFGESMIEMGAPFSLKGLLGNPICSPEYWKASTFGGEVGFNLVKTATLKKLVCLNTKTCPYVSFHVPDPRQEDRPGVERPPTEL
The experiment in a line: Colorimetric COX (ovine) inhibitor screening assay, COX-1. It is filed as biochemical.
Text: as §1

Assay [3] has as its system carrageenan-induced rat paw edema. The assay can be described thus: Carrageenan-induced acute inflammation (rat paw edema). It counts as in vivo, Wistar albino rats. The note with it: 10 mg/kg p.o. The procedure:
The acute anti-inflammatory activity of EAFMB was evaluated using the carrageenan-induced rat paw edema model. Experimental animals were randomly divided into four groups, with six animals in each group. Group I (the control group) received a vehicle (1% CMC). […] Groups III and IV (test group) were given EAFMB at 100 and 200 mg/kg p.o doses, respectively. The drugs were administered orally 1 h before the carrageenan injection. The 0.1 mL of freshly prepared carrageenan suspension was injected into the left hind paw of each rat. The paw volume was measured using a Plethysmometer (Ugo Basile 2470, Italy) at 1, 2, 3, 4, 5, and 6 h after carrageenan administration. The results were expressed as a percentage of the increase in paw swelling and a percentage of the inhibition of paw swelling compared to the initial hind paw thickness. % Increase in Paw Volume =Final Paw Volume at specific time point − Intial Paw Volume at 0 h/Intial Paw Volume at 0 h×100 % Inhibition=Paw Volume at of Control − Paw Volume of treated group/Intial Paw VoluPaw Volume at of Control me at 0 h×100

Assay [4] concerns CFA-induced rat paw edema. The assay can be described thus: CFA-induced chronic inflammation (rat paw oedema). The note with it: 10 mg/kg p.o. once daily. It is filed as in vivo, Wistar rats. The procedure:
(§2) The chronic anti-inflammatory activity of EAFMB was evaluated using the CFA-induced rat paw edema model. Wistar rats of either sex (180 to 200 g) were randomly divided into four groups, each comprising six animals. The control group (Group I) received only a vehicle (0.5% CMC, p.o.). […] Groups III to IV were treated with EAFMB (100 and 200 mg/kg, p.o., respectively) once daily for 21 days. On day 0, chronic inflammation, i.e., arthritis, was induced via injecting 0.1 mL of CFA containing 0.5% of dry heat-killed Mycobacterium tuberculosis in sterile paraffin oil into the sub-plantar region in the left hind paw of rats. The animals were evaluated for the following parameters: • % of a rise or inhibition of oedema
After the CFA injection, the paw oedema was measured using a plethysmograph on day 0 and thereafter on days 4, 8, 14, and 21. The results were expressed as the percent rise in and percent inhibition of paw oedema as per the formulae mentioned in the acute inflammation study. • Hematological Parameters

Assay [5] has as its system CFA-induced chronic inflammation rats. The experiment in a line: Hematological parameters in CFA-induced chronic inflammation. It is filed as in vivo, Wistar rats. The note with it: 10 mg/kg p.o. once daily for 21 days; blood on 21st day. The procedure:
as §2
On the 21st day, blood was withdrawn through a retro-orbital plexus puncture from all treated groups under light ether anesthesia. The hematological parameters like hemoglobin content, total WBC count, ESR, and RBC were analyzed using Yumizen H550, HORIBA Hematology Analyzer, France.

Where two headings read alike, the source gives them in different places.

Usually IC50 stands for the point on the concentration scale where inhibition reaches its midpoint.

For `Oc1cc(O)c2c(c1)OC(c1ccc(O)c(O)c1)C(O)C2` (stereo not shown) [Catechin, catechin], the IC50 stood at 50.4 µM in assay [1] and 9.02 µM in assay [2].
With `COc1ccc2c(c1)c(CC(=O)O)c(C)n2C(=O)c1ccc(Cl)cc1` [Indomethacin, indomethacin], the “% Inhibition of paw oedema” value stood at 27.78% in assay [3] (1 h after carrageenan); 56.84% in assay [3] (2 h after carrageenan); 57.97% in assay [3] (3 h after carrageenan); 59.39% in assay [3] (4 h after carrageenan); 54.37% in assay [3] (5 h after carrageenan); 48.18% in assay [3] (6 h after carrageenan). For the same molecule, the “% Inhibition of paw oedema” value in assay [4] (4th day after CFA) was 46.78%; in assay [4] (8th day after CFA), 70.16%; in assay [4] (14th day after CFA) it was 84.48%; in assay [4] (21st day after CFA), 87.35%. For the same molecule, the “% Rise in Paw Oedema” value in assay [3] (1 h after carrageenan) worked out at 14.28 ± 0.42%; in assay [3] (2 h after carrageenan), 15.85 ± 0.41%; in assay [3] (3 h after carrageenan), 18.19 ±0.36%; in assay [3] (4 h after carrageenan), 21.01 ± 0.51%; in assay [3] (5 h after carrageenan), 26.18 ± 0.63%; in assay [3] (6 h after carrageenan) it was 31.2 ± 0.81%. The “% Rise in Paw Oedema” value in assay [4] (4th day after CFA) is given as 41.92 ± 1.46%; in assay [4] (8th day after CFA), 27.95 ± 1.58%; in assay [4] (14th day after CFA) it was 14.77 ± 1.39%; in assay [4] (21st day after CFA), 11.99 ± 0.89%. Also, the ESR in assay [5] is given as 5.42 ± 0.31 mm/h. In assay [5], the Hb was determined as 14.62 ± 0.27 g%. This molecule registered an RBC in assay [5] of 9.58 ± 0.27 millions/cubic mm. Besides, the WBC in assay [5] was 6.37 ± 0.36 *** 10^3/cubic mm.
Consider `O=C(O)C=Cc1ccc(O)cc1` [P-hydroxycinnamic acid, p-hydroxycinnamic acid], for which the IC50 in assay [1] (ovine COX-2, colorimetric, TMPD 590 nm, read-out: COX Inhibition (IC50) COX-2) is 246 µM; in assay [2] (ovine COX-1, colorimetric, TMPD 590 nm, read-out: COX Inhibition (IC50) COX-1), 229 µM.

Source of the values: PMC10538222, “Isolation and Characterization of Anti-Inflammatory Compounds from Ficus microcarpa L.f. Stem Bark” (Plants, 2023).
